Laboratory results from patent publication US10617656B2, “Methods of increasing the cytotoxicity of chemotherapeutic agents with multisubstrate inhibitors of histone, protein-Lys, polyamine acetylation, and polyamine metabolism” (Vanderbilt University, priority 2010, dated 2020).

Experiments:
H358 lung cancer cells = test: [3H]-thymidine incorporation (DNA synthesis) assay in H358 cells; assay type: cell-based
Method: (§1) (A) Structures of 1a, and the acetylated side chain of a lysine residue within the polypeptide chain of a protein targeted by the acetylating enzyme (R1 and R2 are the main chain elements on both sides of the lysyl residue). (B) [^3H]-thymidine incorporation into DNA of H358 cells pulsed for 6 hrs at three different time points after the addition of increasing concentrations of 1a, i.e., at 6-12 hrs (12 hr curve), at 18-24 hours (24 hr curve), or at 42-48 hrs (48 hr curve). Incorporation is represented as a percentage relative to control (untreated) cells. (C) Cell cycle analysis of propidium iodide-stained cells harvested at various times after addition of 50 μM 1a. % of cells in G1, S, and G2 represents the average of two independent profiles. (D) Western analysis of histone H3 lysine 9 acetylation, histone H3 lysine 56 acetylation, histone H3 lysine 9 methylation, and total histone H3, before “c” or at the indicated times after addition of 50 μM 1a. Each lane represents 60 μg cellular protein.
Control cells were left untreated. […] Control cells were left untreated.
Cells were either labeled immediately before treatment (starting DNA synthesis rate), or subjected to the indicated treatments and then pulsed on successive days until day 4. DNA synthesis is represented as the percent of starting DNA synthesis rate. Viability was determined for each treatment condition 24 hours post-start of treatment by the trypan blue exclusion assay, with percentages of viable cells indicated to the right of the graph.
H358 cells (2,000/well) in 96-well plates were treated with 1, 10 or 50 μM of spd-1a, spd-2a, spd-3a, spm3, or spm2 for 12 hours. Triplicate wells of cells were pulsed 6 hours with 0.5 μCi [^3H]-thymidine (NEN, Boston Mass.) post-start of drug treatment, and harvested onto filter paper using a Brandel Harvester and subjected to scintillation counting. Untreated cells were pulsed from 0-6 hrs to establish the initial rate of incorporation.
Cells were plated in 96-well plates (2000 cells per well to insure conditions for exponential growth for untreated cells over the time course of the experiment) and exposed to the following treatments: 1a (50 μM); camptothecin (Sigma, St Louis, Mo. 5 nM, 18 hours); cisplatin (Platinol, obtained through local pharmacies, 2 μM, 1 hour 15 minutes), 5-fluorouracil (5FU, Adrucil™, obtained through local pharmacies, 2 μM, 1 hour 15 minutes), Taxotere (provided by the late Dr. Pierre Potier, 5 nM, 18 hours). UVC treatment (40 J/m^2) using a Stratalinker™, Stratagene, La Jolla, Calif.) was carried using medium lacking phenol red. At 0-6 hr, 18-24 hr (day 1), 42-48 hr […], 66-72 hr (day 3), and 90-96 hr (day 4) post-start of treatment, triplicate wells were incubated with 0.5 μCi [^3H]-thymidine (NEN, Boston Mass.), harvested onto filter paper, and subjected to scintillation counting. Trypan blue exclusion assays for cell membrane integrity were carried out as known in the art.
The present inventors used 96-well viability assays as described in Saadatmandi et al (Cancer Gene Therapy (2002) 9:[…]) to examine the effect of 1a on DNA synthesis in H358 cells, as well as the combined effects of 1a and chemotherapeutic agents. H358 cells were plated in 96-well plates at 3000 cells per well. […]

[1] = test system: histone H3 lysine 9 acetylation in H358 cells; test: Western analysis of histone H3 acetylation/methylation in H358 cells; assay type: cell-based; details: 50 μM, 12 hours
Method: as §1
Each lane represents 175 μg cell lysate protein.
One 6 cm culture dish of H358 cells per treatment was used. Cells were treated with 50 μM spm-2, spm-3, or spd-3a for 12 hours. Histones were extracted from cells in 0.2M H2SO4 (as described in Furuta, T., et al (2003) J. Biol. Chem. 278: 20303-20312), followed by SDS-PAGE and Western blotting. Blots were probed with anti-acetyl histone H3-lysine 9 (Upstate Biotechnology, Inc.)
Cells were lysed by adding 1 mL of 0.2 M H2SO4. […]
One 10-cm plate of H358 lung cancer cells (about 2×10^6 cells), grown in DMEM+10% Fetal bovine serum as described in reference, were treated for 24 hours with 50 μM 1a inhibitor. […] Treated cells and untreated (control) cells were harvested by lysing in buffer containing 10 mM Hepes pH 7.5, 100 mM NaCl, 300 mM sucrose, 3 mM MgCl2, 1 mM EDTA, 1 mM DTT, 0.5% Triton X-100, 1 mM PMSF, protease inhibitor pellet (Roche) and analyzed on 10% SDS-PAGE gels, followed by Western immunoblot analysis of total histone H3, methylated histone H3 (methylated on lysine 9), and acetylated histone H3 (acetylated on lysine 9). […]

GT41F skin fibroblasts = test: 96-well MTS viability assay, GT41F fibroblasts; assay type: cell-based, human; details: spm single agent, 3 days
Method: (§2) Cells were plated in 96-well plates at 2000 cells per well and treated with the indicated doses of spd-3a. Cell viability was measured by the MTS assay 3 days later.
(§3) DLD-1 cells or H358 cells were plated in 96-well plates at 2000 cells per well and treated with the indicated doses of (A) spm-3 or (B) spm-2. (C) Cell viability was measured by the MTS assay 3 days later. Similar experiment using GT41 fibroblasts with spm2 or spm 3. Each assay point represents an average of duplicates.

DLD-1 colon cancer cells = test: 96-well MTS viability assay, DLD-1; assay type: cell-based; details: single agent, 3 days
Method: as §2, §3

H358 cells = test: Trypan blue exclusion viability assay; assay type: cell-based

For `CC(=O)NCCSCC(=O)NCCCNCCCCNCCCN` [spm-3], the “inhibition of DNA synthesis” value (H358 lung cancer cells; 1, 10 or 50 μM, 12 hours) was “inhibit DNA synthesis”, the “histone H3K9 acetylation (Western)” value [1] was “suppress histone acetylation” and the “sensitivity of normal fibroblasts” value (GT41F skin fibroblasts) was “sensitivity similar to that of H358 lung cancer cells”. The “suppression of cancer cell growth and viability” value (DLD-1 colon cancer cells) was “effective as single agents”.

For `CC(C)(COP(=O)(O)OP(=O)(O)OC[C@H]1O[C@@H](n2cnc3c(N)ncnc32)[C@H](O)[C@@H]1OP(=O)(O)O)[C@@H](O)C(=O)NCCC(=O)NCCSCC(=O)NCCCNCCCCN` [1a, spermidine[N1]-CoA], the “sensitization to 5-FU” value (H358 lung cancer cells; 50 μM 1a + 5FU 2 μM) was “sensitized”, the viability at 50 µM (H358 cells; Homo sapiens, NCI-H358, 18 h, read-out: cell viability, single agent) was ≥ 96% and the “cell viability, single agent” value (H358 cells; human, 24 h) was ≥ 96%.
